Consider 1 compound from paper PMC3083694, “Effects of Intermediates between Vitamins K2 and K3 on Mammalian DNA Polymerase Inhibition and Anti-Inflammatory Activity” (International Journal of Molecular Sciences, 2011).

Bounds are passed on as bounds.

The target in assay [1] is Y-family pols (mammalian). Put plainly: DNA polymerase activity assay, mammalian Y-family pols. The assay is classed as biochemical, mammals. The conditions noted are these: range over mammalian Y-family pols η, ι, κ; read-out: 50% inhibition of the Y family of pols. On the procedure:
(§1) Pols from mammals, a fish (cherry salmon), an insect (fruit fly) and a plant (cauliflower) were purified, and prokaryotic pols and other DNA metabolic enzymes, such as T7 RNA polymerase, T4 polynucleotide kinase and bovine deoxyribonuclease I, were purchased as described in our previous report. The activities of all pols and other DNA metabolic enzymes were measured as described in previous reports.
(§2) The components of the pol assay were poly(dA)/oligo(dT)18 and dTTP as the DNA template-primer and 2′-deoxyribonucleoside 5′-triphosphate (dNTP) substrate, respectively. VK2, VK3, and their synthesized derivatives (i.e., MK-3, MK-2 and MK-1) were dissolved in dimethyl sulfoxide (DMSO) at various concentrations and sonicated for 30 s. The sonicated samples (4 μL) were mixed with 16 μL of each pol enzyme (final amount, 0.05 units) in 50 mM Tris-HCl (pH 7.5) containing 1 mM dithiothreitol, 50% glycerol and 0.1 mM EDTA, and kept at 0 °C for 10 min. […] Activity without the inhibitor was considered to be 100%, and the activity remaining at each concentration of inhibitor was determined relative to this value. […]

Another assay deals with T1, T4 polynucleotide kinase (Enterobacteria phage T4, UniProt P06855).
T1 construct: purchased
Briefly: DNA metabolic enzyme assay, T4 polynucleotide kinase. The conditions noted are these: other DNA metabolic enzyme; read-out: IC50 Value of MK-2, T4 polynucleotide kinase. Type of assay: biochemical. As for the experimental part: as §1

Assay [2] addresses T2, Fruit fly DNA polymerase ɛ (Drosophila melanogaster, UniProt Q9VCN1).
T2 construct: made in house
Put plainly: DNA polymerase activity assay, fruit fly pol ɛ. Type of assay: biochemical. The note with it: insect pol; read-out: IC50 Value of MK-2, Fruit fly DNA polymerase ɛ. As for the experimental part: as §1, §2

In assay [3] the target is T3, Bovine deoxyribonuclease I (Bos taurus, UniProt P00639).
T3 construct: purchased
T3 sequence (P00639 23-282): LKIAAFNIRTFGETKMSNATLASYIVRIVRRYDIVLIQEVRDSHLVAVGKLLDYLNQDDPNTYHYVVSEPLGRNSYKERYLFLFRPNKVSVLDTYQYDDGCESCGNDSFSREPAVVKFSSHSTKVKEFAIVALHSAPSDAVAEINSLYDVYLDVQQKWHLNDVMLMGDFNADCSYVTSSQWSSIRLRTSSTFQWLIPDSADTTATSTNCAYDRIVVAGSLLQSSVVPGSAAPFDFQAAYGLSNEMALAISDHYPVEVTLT
Put plainly: DNA metabolic enzyme assay, bovine deoxyribonuclease I. The assay is classed as biochemical. The note with it: other DNA metabolic enzyme; read-out: IC50 Value of MK-2, Bovine deoxyribonuclease I. On the procedure:
as §1

In assay [4] the target is Calf primase of DNA polymerase α (Bos taurus, UniProt A0A3Q1MF00). Put plainly: DNA metabolic enzyme assay, calf primase of pol α. The assay is classed as biochemical. The conditions noted are these: other DNA metabolic enzyme; read-out: IC50 Value of MK-2, Calf primase of DNA polymerase α. As for the experimental part:
as §1

For another assay, the target named is T4, Human DNA polymerase η (Homo sapiens, UniProt Q9Y253).
T4 construct: made in house
Put plainly: DNA polymerase activity assay, human pol η. Type of assay: biochemical. The conditions noted are these: Y-family pol; read-out: IC50 Value of MK-2, Human DNA polymerase η. On the procedure: as §1, §2

The test system of assay [5] is LPS-induced TNF-α production in serum. Briefly: In vivo LPS-induced inflammatory experiment, serum TNF-α. Details: species or system mouse. The conditions noted are these: female C57BL/6 mice; 100 mg/kg BW intraperitoneal, 30 min before LPS 250 μg/kg BW i.p.; serum 1 h after LPS. On the procedure: All animal studies were performed according to the guidelines outlined in the “Care and Use of Laboratory Animals” of Kobe University. The animals were anesthetized with pentobarbital before undergoing cervical dislocation. Female 8-week-old C57BL/6 mice that had been bred in-house with free access to food and water were used for all experiments. All of the mice were maintained under a 12-h light/dark cycle and housed at a room temperature of 25 °C.
Mice were intraperitoneally injected with 200 μL of MK-2 dissolved in corn oil at 100 mg/kg body weight (BW), or 200 μL of corn oil as a vehicle control. After 30 min, the mice were intraperitoneally injected with 200 μL of 250 μg/kg BW LPS dissolved in PBS or 200 μL of PBS as a vehicle control. After 1 h, the mice were killed, and blood samples were collected. The blood serum was separated by centrifugation at 15,000 × g for 10 min at 4 °C, and the TNF-α level in the serum was measured by ELISA.

In a further assay the target is T5, Human DNA polymerase δ (Homo sapiens, UniProt P28340).
T5 construct: made in house
Put plainly: DNA polymerase activity assay, human pol δ. The assay is classed as biochemical. The note with it: B-family pol; read-out: IC50 Value of MK-2, Human DNA polymerase δ. On the procedure: as §1, §2

Another assay deals with T6, Taq DNA polymerase (Thermus aquaticus, UniProt P19821).
T6 construct: purchased
Briefly: DNA polymerase activity assay, Taq pol. Type of assay: biochemical. The note with it: prokaryotic pol; incubated at 74 °C; read-out: IC50 Value of MK-2, Taq DNA polymerase. On the procedure:
as §1, §2

Assay [6] concerns the target T7, Fruit fly DNA polymerase α (Drosophila melanogaster, UniProt P26019).
T7 construct: made in house
Put plainly: DNA polymerase activity assay, fruit fly pol α. The conditions noted are these: insect pol; read-out: IC50 Value of MK-2, Fruit fly DNA polymerase α. Type of assay: biochemical. As for the experimental part:
as §1, §2

For a further assay, the target named is T8, T7 RNA polymerase (Escherichia phage T7, UniProt P00573).
T8 construct: purchased
T8 sequence (P00573 whole entry): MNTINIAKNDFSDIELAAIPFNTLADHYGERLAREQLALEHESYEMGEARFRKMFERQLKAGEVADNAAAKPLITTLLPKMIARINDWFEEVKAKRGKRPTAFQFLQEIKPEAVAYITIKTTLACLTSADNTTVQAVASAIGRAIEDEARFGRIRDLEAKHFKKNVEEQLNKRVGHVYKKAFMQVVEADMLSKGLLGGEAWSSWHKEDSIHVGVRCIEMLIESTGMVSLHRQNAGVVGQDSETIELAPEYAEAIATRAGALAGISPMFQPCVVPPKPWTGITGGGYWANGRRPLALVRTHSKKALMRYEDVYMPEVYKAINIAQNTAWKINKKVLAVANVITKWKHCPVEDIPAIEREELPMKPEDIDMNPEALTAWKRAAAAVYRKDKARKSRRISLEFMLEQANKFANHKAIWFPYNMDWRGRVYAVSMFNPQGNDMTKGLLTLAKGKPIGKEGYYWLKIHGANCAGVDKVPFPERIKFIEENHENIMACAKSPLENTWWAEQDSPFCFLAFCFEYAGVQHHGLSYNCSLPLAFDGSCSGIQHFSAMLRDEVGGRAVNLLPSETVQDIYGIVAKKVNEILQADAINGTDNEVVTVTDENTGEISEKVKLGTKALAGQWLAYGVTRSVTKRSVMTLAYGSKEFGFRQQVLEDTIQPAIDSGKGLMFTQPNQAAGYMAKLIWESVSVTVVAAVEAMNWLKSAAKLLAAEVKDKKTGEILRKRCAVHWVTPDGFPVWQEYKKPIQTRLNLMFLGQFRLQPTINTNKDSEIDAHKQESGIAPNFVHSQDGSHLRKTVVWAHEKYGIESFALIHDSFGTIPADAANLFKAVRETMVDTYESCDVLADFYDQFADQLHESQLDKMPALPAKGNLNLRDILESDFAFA
Briefly: DNA metabolic enzyme assay, T7 RNA polymerase. Type of assay: biochemical. The note with it: other DNA metabolic enzyme; read-out: IC50 Value of MK-2, T7 RNA polymerase. On the procedure:
as §1

Assay [7] has as its target Cauliflower DNA polymerase α (Brassica oleracea var. botrytis, UniProt A0A0D3D890). Briefly: DNA polymerase activity assay, cauliflower pol α. The assay is classed as biochemical. The conditions noted are these: plant pol; read-out: IC50 Value of MK-2, Cauliflower DNA polymerase α. On the procedure:
as §1, §2

In a further assay the target is T9, Mouse DNA polymerase ι (Mus musculus, UniProt Q6R3M4).
T9 construct: made in house
Briefly: DNA polymerase activity assay, mouse pol ι. Type of assay: biochemical. The note with it: Y-family pol; read-out: IC50 Value of MK-2, Mouse DNA polymerase ι. On the procedure: as §1, §2

In assay [8] the target is T10, Fruit fly DNA polymerase δ (Drosophila melanogaster, UniProt P54358).
T10 construct: made in house
Put plainly: DNA polymerase activity assay, fruit fly pol δ. Type of assay: biochemical. The note with it: insect pol; read-out: IC50 Value of MK-2, Fruit fly DNA polymerase δ. As for the experimental part: as §1, §2

T7 sequence (P26019 whole entry): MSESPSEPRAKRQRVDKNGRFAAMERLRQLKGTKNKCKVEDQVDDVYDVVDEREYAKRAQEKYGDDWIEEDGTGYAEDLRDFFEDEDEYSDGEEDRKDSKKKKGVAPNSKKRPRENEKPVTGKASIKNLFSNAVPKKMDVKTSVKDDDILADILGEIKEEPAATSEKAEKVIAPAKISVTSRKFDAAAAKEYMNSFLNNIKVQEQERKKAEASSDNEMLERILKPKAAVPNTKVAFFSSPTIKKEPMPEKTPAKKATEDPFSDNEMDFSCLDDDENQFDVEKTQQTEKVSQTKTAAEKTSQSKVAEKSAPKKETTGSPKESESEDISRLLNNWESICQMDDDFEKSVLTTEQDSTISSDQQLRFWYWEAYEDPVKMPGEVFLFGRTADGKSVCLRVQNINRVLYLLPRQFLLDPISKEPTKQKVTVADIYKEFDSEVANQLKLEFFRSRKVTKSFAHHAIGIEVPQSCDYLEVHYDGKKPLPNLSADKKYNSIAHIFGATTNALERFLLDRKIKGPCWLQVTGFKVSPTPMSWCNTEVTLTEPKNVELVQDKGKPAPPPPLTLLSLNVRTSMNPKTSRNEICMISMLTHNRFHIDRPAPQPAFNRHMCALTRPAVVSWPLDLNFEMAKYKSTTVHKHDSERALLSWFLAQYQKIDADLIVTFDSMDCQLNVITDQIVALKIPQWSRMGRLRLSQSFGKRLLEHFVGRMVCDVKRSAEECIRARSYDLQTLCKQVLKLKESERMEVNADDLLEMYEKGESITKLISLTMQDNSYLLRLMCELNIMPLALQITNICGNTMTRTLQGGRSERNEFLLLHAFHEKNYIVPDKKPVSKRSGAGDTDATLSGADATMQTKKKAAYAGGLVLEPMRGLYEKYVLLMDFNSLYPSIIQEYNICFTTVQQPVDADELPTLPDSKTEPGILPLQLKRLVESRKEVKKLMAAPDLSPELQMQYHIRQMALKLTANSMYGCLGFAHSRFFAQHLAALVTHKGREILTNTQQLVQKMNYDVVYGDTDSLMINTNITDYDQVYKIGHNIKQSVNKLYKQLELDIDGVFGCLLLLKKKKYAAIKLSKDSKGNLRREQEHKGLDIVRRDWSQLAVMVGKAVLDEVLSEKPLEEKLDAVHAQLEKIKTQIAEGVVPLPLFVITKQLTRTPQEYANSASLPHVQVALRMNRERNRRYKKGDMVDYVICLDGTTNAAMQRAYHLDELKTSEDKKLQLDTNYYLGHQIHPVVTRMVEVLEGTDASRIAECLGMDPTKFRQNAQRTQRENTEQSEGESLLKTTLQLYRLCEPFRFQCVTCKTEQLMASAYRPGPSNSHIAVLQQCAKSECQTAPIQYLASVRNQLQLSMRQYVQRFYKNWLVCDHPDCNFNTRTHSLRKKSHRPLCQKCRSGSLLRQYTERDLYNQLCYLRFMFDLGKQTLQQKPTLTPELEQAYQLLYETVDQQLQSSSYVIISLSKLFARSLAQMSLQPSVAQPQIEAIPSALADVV
T2 sequence (Q9VCN1 whole entry): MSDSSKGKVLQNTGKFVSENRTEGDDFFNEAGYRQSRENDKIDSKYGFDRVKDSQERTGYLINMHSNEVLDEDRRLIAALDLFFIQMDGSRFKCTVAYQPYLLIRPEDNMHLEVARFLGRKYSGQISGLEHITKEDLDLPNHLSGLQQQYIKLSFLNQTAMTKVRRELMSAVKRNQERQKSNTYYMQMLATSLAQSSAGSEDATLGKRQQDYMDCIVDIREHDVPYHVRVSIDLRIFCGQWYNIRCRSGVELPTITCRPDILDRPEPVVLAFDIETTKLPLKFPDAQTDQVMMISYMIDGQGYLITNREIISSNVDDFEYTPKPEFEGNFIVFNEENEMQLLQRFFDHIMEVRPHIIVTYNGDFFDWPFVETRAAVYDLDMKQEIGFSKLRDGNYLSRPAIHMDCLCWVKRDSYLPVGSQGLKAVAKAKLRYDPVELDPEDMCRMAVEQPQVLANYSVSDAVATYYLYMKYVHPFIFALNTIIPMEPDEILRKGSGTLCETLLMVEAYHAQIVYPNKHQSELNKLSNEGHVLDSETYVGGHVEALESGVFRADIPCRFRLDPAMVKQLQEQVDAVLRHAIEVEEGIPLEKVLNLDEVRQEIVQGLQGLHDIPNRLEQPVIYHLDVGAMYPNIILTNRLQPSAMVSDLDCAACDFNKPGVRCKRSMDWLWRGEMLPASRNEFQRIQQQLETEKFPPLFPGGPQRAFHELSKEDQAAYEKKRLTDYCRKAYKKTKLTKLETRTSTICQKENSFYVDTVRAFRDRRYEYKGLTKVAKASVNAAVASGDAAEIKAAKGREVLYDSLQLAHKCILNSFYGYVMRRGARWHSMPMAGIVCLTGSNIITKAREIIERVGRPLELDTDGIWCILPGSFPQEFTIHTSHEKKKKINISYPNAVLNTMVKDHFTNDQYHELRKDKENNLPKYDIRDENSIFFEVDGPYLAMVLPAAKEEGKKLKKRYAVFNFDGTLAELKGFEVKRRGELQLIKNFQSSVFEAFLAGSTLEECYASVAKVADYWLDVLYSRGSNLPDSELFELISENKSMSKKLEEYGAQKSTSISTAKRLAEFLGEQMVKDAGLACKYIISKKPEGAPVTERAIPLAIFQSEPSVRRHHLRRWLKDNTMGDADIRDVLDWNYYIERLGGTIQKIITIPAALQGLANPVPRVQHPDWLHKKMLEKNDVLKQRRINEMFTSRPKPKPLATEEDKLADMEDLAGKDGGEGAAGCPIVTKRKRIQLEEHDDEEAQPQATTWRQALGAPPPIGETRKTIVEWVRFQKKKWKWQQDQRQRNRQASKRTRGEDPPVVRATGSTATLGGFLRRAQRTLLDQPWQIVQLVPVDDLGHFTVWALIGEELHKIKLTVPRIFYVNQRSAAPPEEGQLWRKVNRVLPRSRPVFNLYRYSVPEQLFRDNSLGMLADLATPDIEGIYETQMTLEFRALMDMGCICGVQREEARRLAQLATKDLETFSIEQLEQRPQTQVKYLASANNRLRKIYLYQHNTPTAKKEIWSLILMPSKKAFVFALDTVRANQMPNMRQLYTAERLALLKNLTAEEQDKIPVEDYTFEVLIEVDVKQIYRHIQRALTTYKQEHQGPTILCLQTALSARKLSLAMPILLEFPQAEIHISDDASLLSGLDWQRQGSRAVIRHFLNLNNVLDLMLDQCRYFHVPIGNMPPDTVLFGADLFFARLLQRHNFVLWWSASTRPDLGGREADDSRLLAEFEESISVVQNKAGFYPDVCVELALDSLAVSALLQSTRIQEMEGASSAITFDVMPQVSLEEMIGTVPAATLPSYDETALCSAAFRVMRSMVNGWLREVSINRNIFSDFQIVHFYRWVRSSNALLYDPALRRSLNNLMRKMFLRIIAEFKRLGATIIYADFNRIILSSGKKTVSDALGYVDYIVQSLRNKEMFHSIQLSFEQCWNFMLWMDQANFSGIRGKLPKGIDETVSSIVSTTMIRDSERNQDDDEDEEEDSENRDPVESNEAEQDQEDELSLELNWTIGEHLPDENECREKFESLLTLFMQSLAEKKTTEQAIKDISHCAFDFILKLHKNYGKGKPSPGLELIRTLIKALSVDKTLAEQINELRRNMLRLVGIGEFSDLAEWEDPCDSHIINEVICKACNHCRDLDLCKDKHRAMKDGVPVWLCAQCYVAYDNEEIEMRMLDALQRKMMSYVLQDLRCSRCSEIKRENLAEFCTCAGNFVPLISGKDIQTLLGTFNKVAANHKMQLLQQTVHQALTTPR

As for `CC(C)=CCC/C(C)=C/CC1=C(C)C(=O)c2ccccc2C1=O` [MK-2], the IC50 in [1] was 35.3 to 39 µM; at T4 polynucleotide kinase, > 200 µM; in assay [2], 36.7 ± 2.1 µM; in assay [3] it was > 200 µM; in assay [4], > 200 µM; on Human DNA polymerase η, 37.8 ± 2.2 µM. For the same compound, the IC50 on Human DNA polymerase δ was 29.1 ± 1.8 µM; at Taq DNA polymerase, > 200 µM; in assay [6], 34 ± 2 µM; at T7 RNA polymerase, > 200 µM; in [7], > 200 µM; on Mouse DNA polymerase ι it was 39 ± 2.3 µM. For the same compound, in assay [8], the IC50 is 36.9 ± 2.2 µM. Besides, in [5], the “Decrease of LPS-induced serum TNF-α production” value worked out at 83.2%.
